Assay results published in ChEMBL document CHEMBL1201862, “PubChem BioAssay data set” (2004).
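Where inhibition never reached the appropriate level, the endpoint shown equals the highest concentration tested. Otherwise, values were interpolated linearly from a five-concentration, 48-hour dose response in 96-well plates. GI50 = concentration required for 50% inhibition of growth.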 The source made the active and inactive calls. No stated cut-off is given here; in the data, active = GI50 up to about 1.1 µM and inactive = higher.

Assays:
Test in all cases: inhibition of tumour cell growth, NCI panel, 48 h
KM12 = test system: KM12
MCF7 = test system: MCF7
RPMI-8226 = test system: RPMI-8226
Hs-578T = test system: Hs-578T
OVCAR-5 = test system: OVCAR-5
NCI-H23 = test system: NCI-H23
TK-10 = test system: TK-10
MOLT-4 = test system: MOLT-4
SK-MEL-28 = test system: SK-MEL-28
SNB-75 = test system: SNB-75
HCT-116 = test system: HCT-116
K562 = test system: K562
HOP-92 = test system: HOP-92
MDA-MB-231 = test system: MDA-MB-231
SK-MEL-2 = test system: SK-MEL-2
HL-60 = test system: HL-60
OVCAR-8 = test system: OVCAR-8
NCI/ADR-RES = test system: NCI/ADR-RES
UACC-62 = test system: UACC-62
HOP-62 = test system: HOP-62
SW-620 = test system: SW-620
HCC 2998 = test system: HCC 2998
SNB-19 = test system: SNB-19
IGROV-1 = test system: IGROV-1
Malme-3M = test system: Malme-3M
MDA-N = test system: MDA-N
A549 = test system: A549
UO-31 = test system: UO-31
NCI-H522 = test system: NCI-H522
NCI-H460 = test system: NCI-H460
ACHN = test system: ACHN
NCI-H226 = test system: NCI-H226
LOX IMVI = test system: LOX IMVI
OVCAR-4 = test system: OVCAR-4
786-0 = test system: 786-0
DU-145 = test system: DU-145
OVCAR-3 = test system: OVCAR-3
M14 = test system: M14
SF-295 = test system: SF-295
PC-3 = test system: PC-3
SK-MEL-5 = test system: SK-MEL-5
SF-268 = test system: SF-268
RXF 393 = test system: RXF 393
SK-OV-3 = test system: SK-OV-3
SR = test system: SR
SF-539 = test system: SF-539
UACC-257 = test system: UACC-257
HCT-15 = test system: HCT-15
BT-549 = test system: BT-549
MDA-MB-435 = test system: MDA-MB-435
CCRF-CEM = test system: CCRF-CEM
A498 = test system: A498
EKVX = test system: EKVX
CAKI-1 = test system: CAKI-1
SN12C = test system: SN12C
T47D = test system: T47D
U-251 = test system: U-251
HT-29 = test system: HT-29
COLO 205 = test system: COLO 205

CC(=O)O[C@@H]1C2=C(C3=C([O-])C4=CC=CC(=O)C4C(=O)C3=C2[N+]#N)[C@H](OC(C)=O)[C@@H](OC(C)=O)[C@]1(C)O (stereo partly specified)
GI50 (KM12): 0.333 µM (active)
GI50 (MCF7): 0.392 µM (active)
GI50 (RPMI-8226): 0.115 µM (active)
GI50 (Hs-578T): 0.173 µM (active)
GI50 (OVCAR-5): 0.353 µM (active)
GI50 (NCI-H23): 0.746 µM (active)
GI50 (TK-10): 0.484 µM (active)
GI50 (MOLT-4): 0.0959 µM (active)
GI50 (SK-MEL-28): 0.743 µM (active)
GI50 (SNB-75): 0.186 µM (active)
GI50 (HCT-116): 0.1 µM (active)
GI50 (K562): 0.151 µM (active)
GI50 (HOP-92): 0.438 µM (active)
GI50 (MDA-MB-231): 0.286 µM (active)
GI50 (SK-MEL-2): 0.832 µM (active)
GI50 (HL-60): 0.105 µM (active)
GI50 (OVCAR-8): 0.184 µM (active)
GI50 (NCI/ADR-RES): 0.128 µM (active)
GI50 (UACC-62): 0.661 µM (active)
GI50 (HOP-62): 0.711 µM (active)
GI50 (SW-620): 0.284 µM (active)
GI50 (HCC 2998): 0.262 µM (active)
GI50 (SNB-19): 0.951 µM (active)
GI50 (IGROV-1): 0.347 µM (active)
GI50 (Malme-3M): 0.332 µM (active)
GI50 (MDA-N): 0.361 µM (active)
GI50 (A549): 0.292 µM (active)
GI50 (UO-31): 0.561 µM (active)
GI50 (NCI-H522): 0.173 µM (active)
GI50 (NCI-H460): 0.693 µM (active)
GI50 (ACHN): 0.141 µM (active)
GI50 (NCI-H226): 0.537 µM (active)
GI50 (LOX IMVI): 0.124 µM (active)
GI50 (OVCAR-4): 0.731 µM (active)
GI50 (786-0): 0.306 µM (active)
GI50 (DU-145): 0.383 µM (active)
GI50 (OVCAR-3): 0.502 µM (active)
GI50 (M14): 0.177 µM (active)
GI50 (SF-295): 0.385 µM (active)
GI50 (PC-3): 0.417 µM (active)
GI50 (SK-MEL-5): 0.506 µM (active)
GI50 (SF-268): 0.302 µM (active)
GI50 (RXF 393): 0.565 µM (active)
GI50 (SK-OV-3): 0.731 µM (active)
GI50 (SR): 0.101 µM (active)
GI50 (SF-539): 0.508 µM (active)
GI50 (UACC-257): 0.719 µM (active)
GI50 (HCT-15): 0.119 µM
GI50 (BT-549): 0.631 µM (active)
GI50 (MDA-MB-435): 0.644 µM (active)
GI50 (CCRF-CEM): 0.0323 µM (active)
GI50 (A498): 0.923 µM (active)
GI50 (EKVX): 0.605 µM (active)
GI50 (CAKI-1): 0.407 µM (active)

CO[C@H]1[C@@H](O)[C@H](O[C@@H]2C[C@H]3CC[C@@H]4[C@H](CC[C@]5(C)[C@@H](C6=CC(=O)OC6)CC[C@]45O)[C@@]3(C)[C@H](OC(C)=O)C2)O[C@@H](C)[C@H]1O
GI50 (KM12): 5.83 µM (inactive)
GI50 (RPMI-8226): 2.05 µM (inactive)
GI50 (Hs-578T): 2.07 µM (inactive)
GI50 (SN12C): 0.552 µM (active)
GI50 (OVCAR-5): 2.18 µM (inactive)
GI50 (NCI-H23): 0.662 µM (active)
GI50 (TK-10): 1.17 µM (inactive)
GI50 (MOLT-4): 0.281 µM (active)
GI50 (SK-MEL-28): 4.34 µM (inactive)
GI50 (SNB-75): 3.61 µM (inactive)
GI50 (HCT-116): 0.76 µM (active)
GI50 (K562): 1.96 µM (inactive)
GI50 (HOP-92): 2.54 µM (inactive)
GI50 (MDA-MB-231): 4.2 µM (inactive)
GI50 (SK-MEL-2): 2.88 µM (inactive)
GI50 (HL-60): 0.402 µM (active)
GI50 (OVCAR-8): 1.73 µM (inactive)
GI50 (NCI/ADR-RES): 1.77 µM (inactive)
GI50 (UACC-62): 2.43 µM (inactive)
GI50 (HOP-62): 0.933 µM (active)
GI50 (SW-620): 2.36 µM (inactive)
GI50 (T47D): 3.19 µM (inactive)
GI50 (HCC 2998): 7.18 µM (inactive)
GI50 (SNB-19): 4.28 µM (inactive)
GI50 (IGROV-1): 1.46 µM (inactive)
GI50 (Malme-3M): 1.18 µM (inactive)
GI50 (MDA-N): 1.64 µM (inactive)
GI50 (A549): 0.384 µM (active)
GI50 (UO-31): 1.27 µM (inactive)
GI50 (NCI-H522): 0.574 µM (active)
GI50 (NCI-H460): 0.465 µM (active)
GI50 (ACHN): 0.393 µM (active)
GI50 (NCI-H226): 2.96 µM (inactive)
GI50 (LOX IMVI): 1.52 µM (inactive)
GI50 (OVCAR-4): 1.39 µM (inactive)
GI50 (786-0): 1.84 µM (inactive)
GI50 (DU-145): 0.726 µM (active)
GI50 (OVCAR-3): 0.573 µM (active)
GI50 (M14): 2.22 µM (inactive)
GI50 (SF-295): 1.13 µM (inactive)
GI50 (PC-3): 2.26 µM (inactive)
GI50 (SK-MEL-5): 0.494 µM (active)
GI50 (SF-268): 0.646 µM (active)
GI50 (RXF 393): 0.402 µM (active)
GI50 (SK-OV-3): 2.78 µM (inactive)
GI50 (U-251): 2.54 µM (inactive)
GI50 (SF-539): 0.573 µM (active)
GI50 (UACC-257): 2.84 µM (inactive)
GI50 (HCT-15): 1.92 µM
GI50 (BT-549): 0.637 µM (active)
GI50 (MDA-MB-435): 3.19 µM (inactive)
GI50 (CCRF-CEM): 0.65 µM (active)
GI50 (A498): 1.31 µM (inactive)
GI50 (EKVX): 1.29 µM (inactive)
GI50 (CAKI-1): 0.533 µM (active)
GI50 (HT-29): 3.04 µM (inactive)
GI50 (COLO 205): 2.06 µM (inactive)
